Laboratory results taken from US6417167B1, “Lyophilized compositions containing shingoglycolipid and process for preparing them” (Kirin Beer Kabushiki Kaisha, priority 1997, dated 2002).

Assays:
Type in all cases: physicochemical
[1] = Lyophilized preparations with Polysorbate 20 alone: re-solubility immediately after lyophilization; settings: KRN7000 200 μg/ml, reconstituted in 1 ml distilled water for injection
Procedure: (§1) Next, 20 mg of the active component (KRN7000) was weighed and stirred in 100 ml of the Polysorbate solutions having a variety of concentrations in a heated bath to 80° C. for 20 minutes in order to form a solution. After cooling with running water, the mixture was filtered through a 0.22 μm filter, and transparent colorless glass vials having a volume of 5 ml were charged with a 1 ml portion of each of a variety of solutions and subjected to lyophilizaiton. Lyophilization was carried out under the condition of preliminary freezing at −40° C. for 2 hours and drying at −20° C. for 24 hours, 10° C. for 12 hours, and finally at 25° C. for 5 hours to give the lyophilized product. The degree of vacuum was set at 0.1 Torr or less during drying step.
After the lyophilization step, the lyophilized composition was reconstituted in 1 ml of distilled water for injection, left standing for 30 minutes, and solubility was judged when the foams generated on reconstituiton disappeared.
(§2) The solubility was judged by cleaning the outside of the vial and placing it beneath the white light source in a darkroom for observation with naked eye at the position of a luminous intensity of about 5,000 lux. When the sample was clear with no precipitates, it was judged that the active component was dissolved.

[2] = Additives for improving re-solubility during storage, mannitol as excipient; settings: lyophilized, Polysorbate 20 0.5%, 25° C.
Procedure: as §1, with “First, Polysorbate 20 was dissolved in distilled water in a concentration of 0.5%, and mannitol and a variety of additives such concentrations as listed in Table 8. Next,” for “Next,”, “solvents” for “Polysorbate solutions having a variety of concentrations”, “with” for “with a”, “solutions thus obtained” for “solutions”, “lyophilization.” for “lyophilizaiton.”
After the lyophilization step, the lyophilized composition was stored at 25° C. After storage for 1 month, the lyophilized composition was reconstituted in 1 ml of distilled water for injection, left standing for 30 minutes, and solubility was judged when the foams generated on reconstitution disappeared. The samples judged in solution were further stored, and judged again of their solubility after 4 months.
as §2

[3] = Addition effects of sodium deoxycholate and histidine in the absence of a sugar; settings: lyophilized, Polysorbate 20 0.5%, no sugar, 1%, 50° C.
Procedure: Addition effects of sodium deoxycholate and histidine in the absence of a sugar as the excipient was examined.
as §1, with “First, Polysorbate 20 was dissolved in distilled water in a concentration of 0.5%, and histidine or sodium deoxycholate in a concentration of 1.0%. Next,” for “Next,”, “solvents” for “Polysorbate solutions having a variety of concentrations”, “solutions thus obtained” for “solutions”, “lyophilization.” for “lyophilizaiton.”
After the lyophilization step, the lyophilized composition thus obtained was stored at 50° C. After storage for 3 days or 2 weeks, the lyophilized composition was reconstituted in 1 ml of distilled water for injection, left standing for 30 minutes, and solubility was judged when the foams generated on reconstitution disappeared. […]

[4] = Examination of optimal formulation: re-solubility after storage; settings: lyophilized, Polysorbate 20 0.5%
Procedure: as §1, with “First, Polysorbate 20 was dissolved in distilled water in a concentration of 0.5%, and sucrose and histidine or sodium deoxycholate in such concentrations listed on Table 11. Next,” for “Next,”, “solvents” for “Polysorbate solutions having a variety of concentrations”, “solutions thus obtained” for “solutions”, “lyophilization.” for “lyophilizaiton.”
After the lyophilization step, the lyophilized composition thus obtained was stored at 25° C. or 50° C. After storage at 25° C. for 2 months or at 50° C. for 2 weeks, the lyophilized composition was reconstituted in 1 ml of distilled water for injection, left standing for 30 minutes, and solubility was judged when the foams generated on reconstitution disappeared. The samples judged to be solution after storage at 25° C. for 2 months were further stored, and judged again of their solubility after storage for 4 months.
as §2

## CCCCCCCCCCCCCCCCCCCCCCCCCC(=O)N[C@@H](CO[C@H]1O[C@H](CO)[C@H](O)[C@H](O)[C@H]1O)[C@H](O)[C@H](O)CCCCCCCCCCCCCC [KRN7000, (2S,3S,4R)-1-(α-D-galactopyranosyloxy)-2-hexacosanoylamino-3,4-octadecanediol]
[1]; Polysorbate 20 0.5%
  Re-solubility immediately after lyophilization (by naked eye): + (not dissolved (or deposited))
[1]; Polysorbate 20 1.0%
  Re-solubility immediately after lyophilization (by naked eye): + (not dissolved (or deposited))
[1]; Polysorbate 20 2.0%
  Re-solubility immediately after lyophilization (by naked eye): + (not dissolved (or deposited))
[2]; Mannitol 10%, Sodium deoxycholate, 1%, 1 month
  Re-solubility after storage (by naked eye): − (dissolved)
[2]; Mannitol 10%, Sodium deoxycholate, 1%, 4 months
  Re-solubility after storage (by naked eye): − (dissolved)
[2]; Mannitol 10%, no additive, 1 month
  Re-solubility after storage (by naked eye): − (dissolved)
[2]; Mannitol 10%, no additive, 4 months
  Re-solubility after storage (by naked eye): + (not dissolved (or deposited))
[2]; Mannitol 15%, Glycerol, 0.1%, 1 month
  Re-solubility after storage (by naked eye): + (not dissolved (or deposited))
[2]; Mannitol 15%, Glycerol, 0.1%, 4 months
  Re-solubility after storage (by naked eye): + (not dissolved (or deposited))
[2]; Mannitol 15%, Glycerol, 1%, 1 month
  Re-solubility after storage (by naked eye): + (not dissolved (or deposited))
[2]; Mannitol 15%, Glycerol, 1%, 4 months
  Re-solubility after storage (by naked eye): + (not dissolved (or deposited))
[2]; Mannitol 15%, PEG400, 1%, 1 month
  Re-solubility after storage (by naked eye): + (not dissolved (or deposited))
[2]; Mannitol 15%, PEG400, 1%, 4 months
  Re-solubility after storage (by naked eye): + (not dissolved (or deposited))
[2]; Mannitol 15%, Sodium deoxycholate, 1%, 1 month
  Re-solubility after storage (by naked eye): + (not dissolved (or deposited))
[2]; Mannitol 15%, Sodium deoxycholate, 1%, 4 months
  Re-solubility after storage (by naked eye): + (not dissolved (or deposited))
[2]; Mannitol 15%, no additive, 1 month
  Re-solubility after storage (by naked eye): + (not dissolved (or deposited))
[2]; Mannitol 15%, no additive, 4 months
  Re-solubility after storage (by naked eye): + (not dissolved (or deposited))
[3]; Histidine, 2 weeks
  Re-solubility after storage (by naked eye): + (not dissolved (or deposited))
[3]; Sodium deoxycholate, 3 days
  Re-solubility after storage (by naked eye): + (not dissolved (or deposited))
[4]; Sucrose 1.1%, Histidine, 4%, 50° C., 2 weeks
  Re-solubility after storage (by naked eye): + (not dissolved (or deposited))
[4]; Sucrose 3.1%, Histidine, 3%, 50° C., 2 weeks
  Re-solubility after storage (by naked eye): − (dissolved)
[4]; Sucrose 3.2%, Histidine, 2%, 50° C., 2 weeks
  Re-solubility after storage (by naked eye): − (dissolved)
[4]; Sucrose 4.8%, Sodium deoxycholate, 0.2%, 25° C., 2 months
  Re-solubility after storage (by naked eye): + (not dissolved (or deposited))
[4]; Sucrose 4.8%, Sodium deoxycholate, 0.5%, 25° C., 2 months
  Re-solubility after storage (by naked eye): − (dissolved)
[4]; Sucrose 4.8%, Sodium deoxycholate, 0.5%, 25° C., 4 months
  Re-solubility after storage (by naked eye): − (dissolved)
[4]; Sucrose 4.8%, Sodium deoxycholate, 1%, 25° C., 2 months
  Re-solubility after storage (by naked eye): − (dissolved)
[4]; Sucrose 4.8%, Sodium deoxycholate, 1%, 25° C., 4 months
  Re-solubility after storage (by naked eye): − (dissolved)
[4]; Sucrose 4.8%, Sodium deoxycholate, 2%, 25° C., 2 months
  Re-solubility after storage (by naked eye): − (dissolved)
[4]; Sucrose 4.8%, Sodium deoxycholate, 2%, 25° C., 4 months
  Re-solubility after storage (by naked eye): − (dissolved)
[4]; Sucrose 5.0%, Histidine, 2%, 50° C., 2 weeks
  Re-solubility after storage (by naked eye): − (dissolved)
[4]; Sucrose 5.1%, Histidine, 1%, 50° C., 2 weeks
  Re-solubility after storage (by naked eye): − (dissolved)
[4]; Sucrose 6.9%, Histidine, 1%, 50° C., 2 weeks
  Re-solubility after storage (by naked eye): − (dissolved)
[4]; Sucrose 7.9%, Histidine, 0.5%, 50° C., 2 weeks
  Re-solubility after storage (by naked eye): + (not dissolved (or deposited))
[4]; Sucrose 9.6%, Histidine, 2%, 50° C., 2 weeks
  Re-solubility after storage (by naked eye): − (dissolved)
[4]; Sucrose 9.6%, Sodium deoxycholate, 0.2%, 25° C., 2 months
  Re-solubility after storage (by naked eye): + (not dissolved (or deposited))
[4]; Sucrose 9.6%, Sodium deoxycholate, 0.5%, 25° C., 2 months
  Re-solubility after storage (by naked eye): − (dissolved)
[4]; Sucrose 9.6%, Sodium deoxycholate, 0.5%, 25° C., 4 months
  Re-solubility after storage (by naked eye): − (dissolved)
[4]; Sucrose 9.6%, Sodium deoxycholate, 1%, 25° C., 2 months
  Re-solubility after storage (by naked eye): − (dissolved)
[4]; Sucrose 9.6%, Sodium deoxycholate, 1%, 25° C., 4 months
  Re-solubility after storage (by naked eye): − (dissolved)
[4]; Sucrose 9.6%, Sodium deoxycholate, 2%, 25° C., 2 months
  Re-solubility after storage (by naked eye): − (dissolved)
[4]; Sucrose 9.6%, Sodium deoxycholate, 2%, 25° C., 4 months
  Re-solubility after storage (by naked eye): − (dissolved)
[4]; Sucrose 19.2%, Sodium deoxycholate, 0.1%, 25° C., 2 months
  Re-solubility after storage (by naked eye): + (not dissolved (or deposited))
[4]; Sucrose 19.2%, Sodium deoxycholate, 0.2%, 25° C., 2 months
  Re-solubility after storage (by naked eye): + (not dissolved (or deposited))
[4]; Sucrose 19.2%, Sodium deoxycholate, 0.5%, 25° C., 2 months
  Re-solubility after storage (by naked eye): + (not dissolved (or deposited))
[4]; Sucrose 19.2%, Sodium deoxycholate, 1%, 25° C., 2 months
  Re-solubility after storage (by naked eye): + (not dissolved (or deposited))
[4]; Sucrose 19.2%, Sodium deoxycholate, 2%, 25° C., 2 months
  Re-solubility after storage (by naked eye): + (not dissolved (or deposited))
